Results published in patent US4200748A, “Pyrido[1',2':4,5][1,4]oxazino[2,3-b]quinoxalines and pyrrolo[1',2':4,5][1,4]oxazino[2,3-b]quinoxalines” (American Cyanamid Company, priority 1979, dated 1980).

System: brain receptors (3H-diazepam binding)
Assay: Inhibition of the binding of 3H-diazepam to the brain receptors (rat frontal cortex P2-synaptosomal fraction)
Parameters: species or system male albino rats of the Wistar strain
Conditions: 3H-diazepam 1.5 nM, pH 7.4, 20 minutes in ice; for % Inhibition of Diazepam Binding: test concentration not given; for IC50: inhibition of 3H-diazepam binding
From the text: A test used to measure anxiolytic activity comprises measurement of the ability of test compounds to inhibit the binding of ^3 H-diazepam to the brain receptors of warm-blooded animals. The test is described by R. F. Squires in Nature, 266, No. 21, page 732 (April 1977). The animals used were male albino rats of the Wistar strain, weighing 150-200 g. each from Royalhart Farms. Diazepam (methyl-^3 H) was obtained from New England Nuclear. The test compounds were solubilized in either dimethylformamide, acetic acid, ethanol or hydrochloric acid. The frontal cortex of rats was homogenized gently in 20 volumes of ice-cold 0.32 M. sucrose, centrifuged twice at 1000 g. for 10 minutes and then recentrifuged at 30,000 g. for 20 minutes to produce a crude P2 -synaptosomal fraction. The P2 -fraction was rehomogenised, twice the original volume, in hypotonic 50 mM. Tris.HCl (pH 7.4). The binding assay consisted of 300 .parallel.l. of the P2 -fraction suspension (0.350 mg.), 100 .parallel.l. of test drug and 100 μl. of ^3 H-diazepam (1.5 nM.), which was added to 1.5 ml. of 50 mM. Tris.HCl (pH 7.4). Non-specific binding controls and total binding controls received 100 μl. of diazepam (3 μm.) and 100 μl. of deionized water, respectively, in place of the test compound. Incubation for 20 minutes proceeded in ice and was terminated by filtration, under vacuum, through Whatman GF/C glass fiber filters. The filters were washed twice with 5 ml. of ice-cold 50 mM. Tris.HCl (pH 7.4) and placed in scintillation vials. After drying at 50°-60° C. for 30 minutes, 10 ml. of Beckman Ready-Solve HP was added and the radioactivity determined in a Beckman Scintillation Counter.

Compound: c1ccc2nc3c(nc2c1)OCC1CCCN31 (single isomer, unassigned) [2,3,3a,4-Tetrahydro-1H-pyrrolo[1',2':4,5][1,4]oxazino[2,3-b]quinoxaline]
- % Inhibition of Diazepam Binding: 87%
- IC50: 87 nM

Compound: FC(F)(F)c1ccc2nc3c(nc2c1)OCC1CCCCN31 (stereo not shown) [1,2,3,4,4a,5-Hexahydro-9-trifluoromethylpyrido[1',2':4,5][1,4]oxazino[2,3-b]quinoxaline]
- % Inhibition of Diazepam Binding: 90%
- IC50: 352 nM

Compound: O=[N+]([O-])c1cccc2nc3c(nc12)N1CCCCC1CO3 (stereo not shown) [1,2,3,4,4a,5-hexahydro-11-nitropyrido[1',2':4,5][1,4]oxazino[2,3-b]quinoxaline]
- % Inhibition of Diazepam Binding: 72%
- IC50: 210 nM

Compound: Nc1ccc2nc3c(nc2c1)OCC1CCCCN31 (stereo not shown) [9-Amino-1,2,3,4,4a,5-hexahydropyrido[1',2':4,5][1,4]oxazino[2,3-b]quinoxaline]
- % Inhibition of Diazepam Binding: 93%
- IC50: 39 nM

Compound: Clc1ccc2nc3c(nc2c1)OCC1CCCCN31 (stereo not shown) [9-Chloro-1,2,3,4,4a,5-hexahydropyrido[1',2':4,5][1,4]oxazino[2,3-b]quinoxaline]
- % Inhibition of Diazepam Binding: 97%
- IC50: 14 nM

Compound: Clc1ccc2nc3c(nc2c1)N1CCCCC1CO3 (stereo not shown) [10-chloro-1,2,3,4,4a,5-hexahydropyrido[1',2':4,5][1,4]oxazino[2,3-b]quinoxaline]
- % Inhibition of Diazepam Binding: 95%
- IC50: 22 nM

Compound: Nc1cccc2nc3c(nc12)N1CCCCC1CO3 (stereo not shown) [11-Amino-1,2,3,4,4a,5-hexahydropyrido[1',2':4,5][1,4]oxazino[2,3-b]quinoxaline]
- % Inhibition of Diazepam Binding: 98%
- IC50: 20 nM

Compound: CN(C)C=Nc1cccc2nc3c(nc12)N1CCCCC1CO3 (stereo not shown) [N'-(1,2,3,4,4a,5-hexahydropyrido[1',2':4,5][1,4]oxazino[2,3-b]quinoxalin-11-yl)-N,N-dimethylformamidine]
- % Inhibition of Diazepam Binding: 96%
- IC50: 55 nM
